Assays:
[1] = Bioavailability after a single oral tablet in beagle dogs (plasma LC/MS/MS, non-compartmental PK); type: in vivo; conditions: dog, male beagle dogs, fasted, pentagastrin pre-treated, single 25 mg strength tablet (dry granulation, 30% active); for bioavailability: read-out: % F (oral bioavailability)
Description: The bioavailability of sodium (2R,5S,13aR)-7,9-dioxo-10-((2,4,6-trifluorobenzyl)carbamoyl)-2,3,4,5,7,9,13,13a-octahydro-2,5-methanopyrido[1′,2′:4,5]pyrazino[2,1-b][1,3]oxazepin-8-olate (Formula II) Form I was compared to the bioavailability of (2R,5S,13aR)-8-hydroxy-7,9-dioxo-N-(2,4,6-trifluorobenzyl)-2,3,4,5,7,9,13,13a-octahydro-2,5-methanopyrido[1′,2′:4,5]pyrazino[2,1-b][1,3]oxazepine-10-carboxamide (Formula I) Form III.
Each dosing group consisted of 6 male, non-naïve purebred beagle dogs. At dosing, the animals weighed between 10 to 13 kg. The animals were fasted overnight prior to dose administration and up to 4 hr after dosing. Each subject was pre-treated with pentagastrin (6 μg/kg) and dosed 30 minutes later with a single 25 mg strength tablet of Formula II Form I or Formula I Form III. Each subject was given 10 mL of water to aid in swallowing.
Serial venous blood samples (approximately 1 mL each) were taken from each animal at 0, 0.250, 0.483, 0.583, 0.750, 1.00, 1.50, 2.00, 4.00, 8.00, 12.0, and 24.0 hours after dosing. The blood samples were collected into Vacutainer™ tubes containing EDTA-K2 as the anti-coagulant and were immediately placed on wet ice pending centrifugation for plasma. An LC/MS/MS method was used to measure the concentration of the test compound in plasma. An aliquot of 100 μL of each plasma sample was added to a clean 96 well plate, and 400 μL of cold acetonitrile/internal standard solution (ACN)/(ISTD) was added. After protein precipitation, an aliquot of 110 μL of the supernatant was transferred to a clean 96-well plate and diluted with 300 μL of water. An aliquot of 25 μL of the above solution was injected into a TSQ Quantum Ultra LC/MS/MS system utilizing a Hypersil Gold C18 HPLC column (50×3.0 mm, 5 μm; Thermo-Hypersil Part #25105-053030). An Agilent 1200 series binary pump (P/N G1312A Bin Pump) was used for elution and separation, and an HTS Pal autosampler (LEAP Technologies, Carrboro, N.C.) was used for sample injection. A TSQ Quantum Ultra triple quadrupole mass spectrometer was utilized in selective reaction monitoring mode (Thermo Finnigan, San Jose, Calif.). Liquid chromatography was performed using two mobile phases: mobile phase A contained 1% acetonitrile in 2.5 mM ammonium formate aqueous solution with pH of 3.0, and mobile phase B contained 90% acetonitrile in 10 mM ammonium formate with pH of 4.6. Non-compartmental pharmacokinetic analysis was performed on the plasma concentration-time data. The resulting data are shown in Table 3: F (%) refers to oral bioavailability; AUC refers to area under the curve and is a measure of total plasma exposure of the indicated compound; Cmax refers to the peak plasma concentration of the compound after administration.

HIV = conditions: as discussed in co-pending U.S. Ser. No. 14/133,855 and PCT US2013/076367; cited from earlier work
[2] = Stability on storage under accelerated conditions (% AN, % LS); type: physicochemical
Experimental: The stability of sodium (2R,5S,13aR)-7,9-dioxo-10-((2,4,6-trifluorobenzyl)carbamoyl)-2,3,4,5,7,9,13,13a-octahydro-2,5-methanopyrido[1′,2′:4,5]pyrazino[2,1-b][1,3]oxazepin-8-olate Form I was tested. […] In Table 5, AN refers to area normalization and is the relative peak area of the active with respect to other impurities and components contained in the sample. LS refers to labile strength and is the amount of active present relative to the theoretical amount.

O=C(NCc1c(F)cc(F)cc1F)c1cn2c(c(O)c1=O)C(=O)N1[C@H]3CC[C@H](C3)O[C@@H]1C2 [Formula I Form III, (2R,5S,13aR)-8-hydroxy-7,9-dioxo-N-(2,4,6-trifluorobenzyl)-2,3,4,5,7,9,13,13a-octahydro-2,5-methanopyrido[1′,2′:4,5]pyrazino[2,1-b][1,3]oxazepine-10-carboxamide]
AUC(0-t) [1]: 27 ± 13 µM·h
Cmax [1]: 6 ± 2 µM
bioavailability [1]: 10 ± 6%

O=C(NCc1c(F)cc(F)cc1F)c1cn2c(c(O)c1=O)C(=O)N1[C@H]3CC[C@H](C3)O[C@@H]1C2 [Formula I, (2R,5S,13aR)-8-hydroxy-7,9-dioxo-N-(2,4,6-trifluorobenzyl)-2,3,4,5,7,9,13,13a-octahydro-2,5-methanopyrido[1′,2′:4,5]pyrazino[2,1-b][1,3]oxazepine-10-carboxamide]
anti-viral activity (in words) (HIV): demonstrates anti-viral activity

O=C(NCc1c(F)cc(F)cc1F)c1cn2c(c([O-])c1=O)C(=O)N1[C@H]3CC[C@H](C3)O[C@@H]1C2.[Na+] [Formula II Form I, sodium (2R,5S,13aR)-7,9-dioxo-10-((2,4,6-trifluorobenzyl)carbamoyl)-2,3,4,5,7,9,13,13a-octahydro-2,5-methanopyrido[1′,2′:4,5]pyrazino[2,1-b][1,3]oxazepin-8-olate]
% AN (area normalization) ([2]; 25° C./60% RH (open), 1 week): 95.0 ± 0.2%
% LS (labile strength) ([2]; 25° C./60% RH (open), 1 week): 104.8 ± 0.1%
% AN (area normalization) ([2]; 25° C./60% RH (open), 2 weeks): 94.4 ± 0.1%
% LS (labile strength) ([2]; 25° C./60% RH (open), 2 weeks): 101.6 ± 0.1%
% AN (area normalization) ([2]; 25° C./60% RH (open), 4 weeks): 94.4 ± 0.0%
% LS (labile strength) ([2]; 25° C./60% RH (open), 4 weeks): 103.0 ± 0.8%
% AN (area normalization) ([2]; 40° C. (closed), 1 week): 95.2 ± 0.3%
% LS (labile strength) ([2]; 40° C. (closed), 1 week): 108.0 ± 0.2%
% AN (area normalization) ([2]; 40° C. (closed), 2 weeks): 94.4 ± 0.1%
% LS (labile strength) ([2]; 40° C. (closed), 2 weeks): 102.4 ± 0.1%
% AN (area normalization) ([2]; 40° C. (closed), 4 weeks): 94.4 ± 0.0%
% LS (labile strength) ([2]; 40° C. (closed), 4 weeks): 97.0 ± 0.0%
% AN (area normalization) ([2]; 40° C./75% RH (open), 1 week): 94.9 ± 0.1%
% LS (labile strength) ([2]; 40° C./75% RH (open), 1 week): 103.3 ± 6.9%
% AN (area normalization) ([2]; 40° C./75% RH (open), 2 weeks): 94.4 ± 0.0%
% LS (labile strength) ([2]; 40° C./75% RH (open), 2 weeks): 108.5 ± 0.4%
% AN (area normalization) ([2]; 40° C./75% RH (open), 4 weeks): 94.4 ± 0.0%
% LS (labile strength) ([2]; 40° C./75% RH (open), 4 weeks): 102.9 ± 0.1%
% AN (area normalization) ([2]; Starting material, 0 weeks): 94.4 ± 0.1%
% LS (labile strength) ([2]; Starting material, 0 weeks): 99.8 ± 0.1%
Stability (in words) ([2]; after four weeks of storage under accelerated conditions): stable
AUC(0-t) [1]: 71 ± 16 µM·h
Cmax [1]: 13 ± 1 µM
bioavailability [1]: 28 ± 7%

Source: US20170197985A1, “SODIUM (2R,5S,13AR)-7,9-DIOXO-10-((2,4,6-TRIFLUOROBENZYL)CARBAMOYL)-2,3,4,5,7,9,13,13A-OCTAHYDRO-2,5-METHANOPYRIDO[1',2':4,5]PYRAZINO[2,1-B][1,3]OXAZEPIN-8-OLATE” (Gilead Sciences, Inc., priority 2014, published 2017)
